Measurements: patent US20140066431A1, “Benzoxazepines as Inhibitors of PI3K/mTOR and Methods of Their Use and Manufacture” (Exelixis, Inc., priority 2010, published 2014)

Target: mTOR/GbL/Raptor (mTORC1) (Homo sapiens, UniProt P42345)
Experiment: mTOR/GbL/Raptor (mTORC1) ELISA assay
Type: biochemical
Details: 0.2 nM mTORC1, 10 μM ATP, 50 nM 4E-BP1
Experimental: The measurement of mTORC1 enzyme activity was performed in an ELISA assay format following the phosphorylation of 4E-BP1 protein. All experiments were performed in the 384-well format. Generally, 0.5 μL DMSO containing varying concentrations of the test compound was mixed with 15 μL enzyme solution. Kinase reactions were initiated with the addition of 15 μL of substrates-containing solution. The assay conditions were as follows; 0.2 nM mTORC1, 10 μM ATP and 50 nM NHis-tagged 4E-BP1 in 20 mM Hepes, pH 7.2, 1 mM DTT, 50 mM NaCl, 10 mM MnCl2, 0.02 mg/mL BSA, 0.01% CHAPS, 50 mM β-glycerophosphate. Following an incubation of 120 minutes at ambient temperature, 20 μL of the reaction volume was transferred to a Ni-Chelate-coated 384-well plate. The binding step of the 4E-BP1 protein proceeded for 60 minutes, followed by washing 4 times each with 50 μL of Tris-buffered saline solution (TBS). Anti-phospho-4E-BP1 rabbit-IgG (20 μL, 1:5000) in 5% BSA-TBST (0.2% Tween-20 in TBS) was added and further incubated for 60 minutes. Incubation with a secondary HRP-tagged anti-IgG was similarly performed after washing off the primary antibody (4 washes of 50 μL). Following the final wash step with TBST, 20 μL of SuperSignal ELISA Femto (Pierce Biotechnology) was added and the luminescence measured using an EnVision plate reader.

Row | IC50 (mTORC1 ELISA) | SMILES
1 | not active | Cc1nc2ccc(-c3ccc4c(c3)CN(C(=O)N3CCCCC3c3cc(C(F)(F)F)cc(C(F)(F)F)c3)CCO4)cc2[nH]1 (stereo not drawn) [compound 115, 4-({2-[3,5-bis(trifluoromethyl)phenyl]piperidin-1-yl}carbonyl)-7-(2-methyl-1H-benzimidazol-6-yl)-2,3,4,5-tetrahydro-1,4-benzoxazepine]
2 | not active | Cc1nc2ccc(-c3ccc4c(c3)CN(C(=O)N3CCCC3)CCO4)cc2[nH]1 [compound 87, 7-(2-methyl-1H-benzimidazol-6-yl)-4-(pyrrolidin-1-ylcarbonyl)-2,3,4,5-tetrahydro-1,4-benzoxazepine]
3 | not active | Cc1nc2ccc(-c3ccc4c(c3)CN(C(=O)N3CCOCC3)CCO4)cc2[nH]1 [compound 132, 7-(2-methyl-1H-benzimidazol-6-yl)-4-(morpholin-4-ylcarbonyl)-2,3,4,5-tetrahydro-1,4-benzoxazepine]
4 | not active | CCOC(=O)CN(Cc1ccccc1)C(=O)N1CCOc2ccc(-c3ccc4nc(C)[nH]c4c3)cc2C1 [compound 151, ethyl N-{[7-[2-methyl-1H-benzimidazol-6-yl)-2,3-dihydro-1,4-benzoxazepin-4(5H)-yl]carbonyl}-N-(phenylmethyl)glycinate]
5 | not active | Cc1nc2ccc(-c3ccc4c(c3)CN(C(=O)N3CCC(C5CCNCC5)CC3)CCO4)cc2[nH]1 [compound 71, 1-{[7-(2-methyl-1H-benzimidazol-6-yl)-2,3-dihydro-1,4-benzoxazepin-4(5H)-yl]carbonyl}-4,4′-bipiperidine]
6 | not active | Cc1nc2ccc(-c3ccc4c(c3)CN(C(=O)N3CC[S+]([O-])CC3)CCO4)cc2[nH]1 [compound 101, 7-(2-methyl-1H-benzimidazol-6-yl)-4-[(1-oxidothiomorpholin-4-yl)carbonyl]-2,3,4,5-tetrahydro-1,4-benzoxazepine]
7 | not active | CC(=O)c1ccc(N2CCN(C(=O)N3CCOc4ccc(-c5ccc6nc(C)[nH]c6c5)cc4C3)CC2)cc1 [compound 169, 1-[4-(4-{[7-(2-methyl-1H-benzimidazol-6-yl)-2,3-dihydro-1,4-benzoxazepin-4(5H)-yl]carbonyl}piperazin-1-yl)phenyl]ethanone]
8 | not active | Cc1nc2ccc(-c3ccc4c(c3)CN(C(=O)N3CC[C@H](O)C3)CCO4)cc2[nH]1 [compound 82, (3S)-1-{[7-(2-methyl-1H-benzimidazol-6-yl)-2,3-dihydro-1,4-benzoxazepin-4(5H)-yl]carbonyl}pyrrolidin-3-ol]
9 | not active | Cc1nc2ccc(-c3ccc4c(c3)CN(C(=O)N3CC[C@@H](O)C3)CCO4)cc2[nH]1 [compound 78, (3R)-1-{[7-(2-methyl-1H-benzimidazol-6-yl)-2,3-dihydro-1,4-benzoxazepin-4(5H)-yl]carbonyl}pyrrolidin-3-ol]
